In patent publication US12577206B2 (BRISTOL-MYERS SQUIBB COMPANY, priority 2020, dated 2026):

Experiments:
human FPR1 = target: T1, human FPR1 (Homo sapiens, UniProt P21462); assay: FPR1 cyclic adenosine monophosphate (cAMP) assay; type: cell-based; settings: CHO cells overexpressing human FPR1; forskolin 10 μM; inhibition of cAMP production; HTRF; read-out: hFPR1 cAMP2 EC50
T1 sequence (P21462 1-350): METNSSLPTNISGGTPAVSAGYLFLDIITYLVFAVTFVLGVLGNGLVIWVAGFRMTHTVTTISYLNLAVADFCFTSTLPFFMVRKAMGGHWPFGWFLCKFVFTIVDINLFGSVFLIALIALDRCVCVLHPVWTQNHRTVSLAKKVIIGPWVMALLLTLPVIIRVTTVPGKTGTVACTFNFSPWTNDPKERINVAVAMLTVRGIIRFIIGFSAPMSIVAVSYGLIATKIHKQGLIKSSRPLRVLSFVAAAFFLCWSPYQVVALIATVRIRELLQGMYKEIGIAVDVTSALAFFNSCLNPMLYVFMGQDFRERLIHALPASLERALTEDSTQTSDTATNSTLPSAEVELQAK
Summary of the method: (§1)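 Inhibition of forskolin-stimulated cAMP (final forskolin 5 μM for FPR2, 10 μM for FPR1; IBMX 200 μM) was measured by HTRF in recombinant CHO cells after 30 min at room temperature.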

human FPR2 = target: T2, human FPR2 (Homo sapiens, UniProt P25090); assay: FPR2 cyclic adenosine monophosphate (cAMP) assay; type: cell-based; settings: CHO cells overexpressing human FPR2; forskolin 5 μM; inhibition of cAMP production; HTRF; read-out: hFPR2 cAMP2 EC50
T2 sequence (P25090 1-351): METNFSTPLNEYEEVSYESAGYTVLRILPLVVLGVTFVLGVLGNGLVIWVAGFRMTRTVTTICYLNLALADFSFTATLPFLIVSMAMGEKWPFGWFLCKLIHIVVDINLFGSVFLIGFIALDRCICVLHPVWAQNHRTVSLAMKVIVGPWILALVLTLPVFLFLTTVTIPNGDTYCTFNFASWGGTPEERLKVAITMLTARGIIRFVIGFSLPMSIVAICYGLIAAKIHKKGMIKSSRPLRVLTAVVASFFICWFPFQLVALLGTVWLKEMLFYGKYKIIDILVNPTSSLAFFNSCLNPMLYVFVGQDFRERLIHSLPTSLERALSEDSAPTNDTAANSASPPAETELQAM
Summary of the method: as §1

SMILES | EC50 (human FPR1) | EC50 (human FPR2)
COc1cc(OCCC(C)(C)O)nc(-n2c(=O)c(NC(=O)c3ccc(OC(F)F)cc3)c(-c3c(F)cc(OC)cc3F)n2C)c1 [Example 379, N-(5-(2,6-Difluoro-4-methoxyphenyl)-2-(6-(3-hydroxy-3-methylbutoxy)-4-methoxypyridin-2-yl)-1-methyl-3-oxo-2,3-dihydro-1H-pyrazol-4-yl)-4-(difluoromethoxy)benzamide] | > 10000 nM | 7 nM
COc1cc(F)c(-c2c(NC(=O)c3ccc(OC(F)F)cc3)c(=O)n(-c3ccccc3Cl)n2C)c(F)c1 [Example 171, N-[2-(2-chlorophenyl)-5-(2,6-difluoro-4-methoxyphenyl)-1-methyl-3-oxo-2,3-dihydro-1H-pyrazol-4-yl]-4-(difluoromethoxy)benzamide] | > 10000 nM | 12 nM
COc1cc(F)c(-c2c(NC(=O)c3ccc(OC(F)(F)F)cc3)c(=O)n(-c3ncccc3F)n2C)c(F)c1 [Example 32, N-[5-(2,6-difluoro-4-methoxyphenyl)-2-(3-fluoropyridin-2-yl)-1-methyl-3-oxo-2,3-dihydro-1H-pyrazol-4-yl]-4-(trifluoromethoxy)benzamide] | 6500 nM | 8 nM
COc1cc(F)c(-c2c(NC(=O)c3ccc(OC(F)F)cc3)c(=O)n(-c3cc(OCCO)cc(C(F)(F)F)n3)n2C)c(F)c1 [Example 348, N-(5-(2,6-Difluoro-4-methoxyphenyl)-2-(4-(2-hydroxyethoxy)-6-(trifluoromethyl)pyridin-2-yl)-1-methyl-3-oxo-2,3-dihydro-1H-pyrazol-4-yl)-4-(difluoromethoxy)benzamide] | 2200 nM | 20 nM

Compounds with a lower EC50 (human FPR1), results first:

EC50 (human FPR1) | EC50 (human FPR2) | SMILES
820 nM | 6 nM | COc1cc(F)c(-c2c(NC(=O)c3ccc(OC(F)(F)F)cc3)c(=O)n(-c3cccc(OC)n3)n2C)c(F)c1 [Example 74, N-[5-(2,6-difluoro-4-methoxyphenyl)-2-(6-methoxypyridin-2-yl)-1-methyl-3-oxo-2,3-dihydro-1H-pyrazol-4-yl]-4-(trifluoromethoxy)benzamide]
520 nM | 2 nM | COc1cc(F)c(-c2c(NC(=O)c3ccc(OC(F)F)cc3)c(=O)n(-c3cccc(N(C)C)n3)n2C)c(F)c1 [Example 82, N-[5-(2,6-difluoro-4-methoxyphenyl)-2-[6-(dimethylamino)pyridin-2-yl]-1-methy-3-oxo-2,3-dihydro-1H-pyrazol-4-yl]-4-(difluoromethoxy)benzamide]
1100 nM | 9 nM | COc1cc(F)c(-c2c(NC(=O)c3ccc(OC(F)(F)F)cc3)c(=O)n(-c3c(F)cccc3F)n2C)c(F)c1 [Example 26, N-[5-(2,6-difluoro-4-methoxyphenyl)-2-(2,6-difluorophenyl)-1-methyl-3-oxo-2,3-dihydro-1H-pyrazol-4-yl]-4-(trifluoromethoxy)benzamide]
